pEC50, pIC50: −log10 of the molar value.
Key:
Assay type in all cases: cell-based
Colo-205 cells = assay: Calcium flux assay (FLIPR Calcium 5); settings: Homo sapiens, COLO 205, 0.6 h, FLIPR Calcium 5, measured over 36 minutes
Method: Compounds described herein induced ER stress by causing intracellular calcium flux. Calcium flux was measured in Colo-205 cells using the FLTPR® Calcium 5 Assay Kit according to manufacter's protocol (Molecular Devices, Cat. #R8186) on a FLIPR3 system (Molecular Devices). Calcium flux is measured over 36 minutes. The Colo-205 calcium flux assay data are summarized in Table 47: A<0.6 μM; 0.6 μM≤B<2.0 μM; 2.0 μM≤C<10.0 μM; D≥10.0 μM.

HepG2 parental = assay: In vitro cell viability (CellTiter-Glo), HepG2 parental; settings: Homo sapiens, 96 hours, read-out: HepG2 viability
Procedure, shortened: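 Parental HepG2 cells, 5,000 per well in DMEM with 10% FBS, attached overnight, then exposed to a compound concentration range for 96 h. Viability by CellTiter-Glo luminescence; IC50 reported in bins (A <0.5 µM up to D ≥10 µM).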

[1] = test system: Hek293 WFS1 over-expressor; assay: In vitro cell viability (CellTiter-Glo), Hek293 WFS1 over-expressor; settings: Homo sapiens, HEK293, Hek293 WFS1 over-expressing cells; read-out: Hek293 WFS1 viability
Procedure, shortened: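 HEK293 cells stably overexpressing WFS1 via retroviral transduction (puromycin-selected), with empty-vector cells as counterpart, plated 1,000/well. Compounds added at various concentrations after overnight attachment; viability by CellTiter-Glo luminescence after 96 h, reported as IC50.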

pEC50 (Colo-205 cells): 5.70 to 6.22
SMILES: Cc1nc(NCc2cn(Cc3ccc(C(F)(F)F)nc3)nc2Br)nc2c1NC(=O)[C@H](C)N2C [Compound 412, (S)-2-(((3-bromo-1-((6-(trifluoromethyl)pyridin-3-yl)methyl)-1H-pyrazol-4-yl)methyl)amino)-4,7,8-trimethyl-7,8-dihydropteridin-6(5H)-one]
pIC50 (HepG2 parental): 5.00 to 5.70
pIC50 [1]: 6.22 to 7.22
